One assay has as its target T1, adenosine A-2 receptors (Rattus norvegicus, UniProt P30543).
T1 construct: from tissue; host or cells: striatal membranes of young male C-D rats (Charles River)
Description: Test for affinity for brain adenosine A-2 receptors ([3H]NECA competition, striatal membranes). Type of assay: binding. The settings on record: for Ki: rat brain striatum membranes, [3H]NECA, read-out: A-2 Receptor Ki; for A-1 Ki/A-2 Ki: ratio of A-1 Ki to A-2 Ki (selectivity). From the text: The test described below was used to determine the potency of test compounds to compete with the ligand [3H]-5'-N-ethyl-carboxamidoadenosine (NECA) for the adenosine A-2 receptors prepared from animal brain membranes. (See also R.R. Bruns, G.H. Lu, and T.A. […] Pharmacol., 29, 331-346 (1986).) Young male rats (C-D strain), obtained from Charles River, are killed by decapitation and the brains are removed. Membranes for ligand binding are isolated from rat brain striatum. The tissue is homogenized in 20 vol ice-cold 50 mM Tris-HCl buffer (pH 7.7) using a polytron (setting for 6 to 20 seconds). The homogenate is centrifuged at 50,000 x g for 10 minutes at 4°C. The pellet is again homogenized in a polytron in 20 vol of buffer, and centrifuged as before. The pellet is finally resuspended in 40 vol of 50 mM Tris-HCl (pH 7.7) per gram of original wet weight of tissue. […] Incubations are carried out at 25°C for 60 minutes. Each tube is filtered through GF/B glass fiber filters using a vacuum. The filters are rinsed two times with 5 ml of the ice-cold buffer. The membranes on the filters are transferred to scintillation vials to which 8 ml of Omnifluor with 5% Protosol is added. The filters are counted by liquid scintillation spectrometry. Specific binding of [3H]NECA is measured as the excess over blanks run in the presence of 100 µM 2-chloroadenosine. Total membrane-bound radioactivity is about 2.5% of that added to the test tubes. […] Specific binding to membranes is about 50% of the total bound. Protein content of the membrane suspension is determined by the method of O.H. Lowry, N.J. Rosebrough, A.L. Farr and R.J. Randall, Protein Measurements With Folin Phenol Reagent, J. Biol. Chem., 193, 265-275 (1951).

In another assay the target is T2, Adenosine A-1 receptor (Rattus norvegicus, UniProt P25099).
T2 construct: the membranes are isolated from whole animal brains; from tissue; host or cells: whole brain membranes of male Sprague-Dawley rats
T2 sequence (P25099 1-326): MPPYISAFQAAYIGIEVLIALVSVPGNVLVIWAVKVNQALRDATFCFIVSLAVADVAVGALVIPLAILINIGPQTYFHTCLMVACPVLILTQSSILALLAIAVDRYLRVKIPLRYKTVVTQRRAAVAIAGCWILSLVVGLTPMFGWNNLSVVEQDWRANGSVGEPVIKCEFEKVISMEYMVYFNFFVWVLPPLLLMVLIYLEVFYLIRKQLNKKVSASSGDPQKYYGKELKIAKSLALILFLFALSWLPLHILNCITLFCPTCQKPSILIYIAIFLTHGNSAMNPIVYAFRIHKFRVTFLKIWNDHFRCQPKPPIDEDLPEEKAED
Briefly: Test for affinity for brain adenosine A-1 receptor binding sites ([3H]cyclohexyladenosine competition). The settings on record: rat brain membranes, [3H]cyclohexyladenosine 0.8 nM. From the text: The test described below is used to determine the potency of test compounds to compete with the ligand […] for he Adenosine A-1 receptor prepared from rat brain membranes. Male Sprague-Dawley rats are sacrificed by decapitation and the membranes are isolated from whole animal brains. (See R. Goodman, M. Cooper. M. Gavish, and S. Synder, Guanine Nucleotide and Cation Regulation of the Binding of [3H]Diethylphenylxanthine to Adenosine A-1 Receptors in Brain Membrane, Molecular Pharmacology, 21, 329-335 (1982).
Membranes are homogenized (using polytron setting 7 for 10 seconds) in 25 volumes of ice-cold 50 mM Tris-HCl buffer, pH 7.7. […]
The incubation tubes, in triplicate, receive 100 µl of [3H]cyclohexyladenosine, 0.8 nM in the assay, 200 µl of test compounds at various concentrations over the range of 10^-10 M to 10^-6 M diluted with […] Tris-HCl buffer (pH 7.7), 0.2 ml of membrane suspension (8 mg wet weight) and in a final volume of 2 ml with Tris buffer. […] The filters are counted by liquid scintillation spectrometry in 8 ml of Omniflour containing 5% Protosol.
Specific binding of [3H]cyclohexyladenosine is measured as the excess over blanks taken in the presence of 10^-5 M 2-chloroadenosine. Total membrane-bound radioactivity is about 5% of that added to the test tubes. […] Protein content of the membrane suspension is determined by the method of Lowry, et al., Ibid, 265. […]

The target of the next assay is A-2 receptor. The settings on record: rat brain slice assay; cited from earlier work.

The text below walks through data of patent EP0662975B1, “2-SUBSTITUTED ADENOSINES WITH A-2 RECEPTOR AFFINITY” (priority 1992, dated 1994).

As usually defined, the Ki is a dissociation constant, usually derived from enzyme kinetics or from competition with a known ligand.

T1 sequence (P30543 whole entry): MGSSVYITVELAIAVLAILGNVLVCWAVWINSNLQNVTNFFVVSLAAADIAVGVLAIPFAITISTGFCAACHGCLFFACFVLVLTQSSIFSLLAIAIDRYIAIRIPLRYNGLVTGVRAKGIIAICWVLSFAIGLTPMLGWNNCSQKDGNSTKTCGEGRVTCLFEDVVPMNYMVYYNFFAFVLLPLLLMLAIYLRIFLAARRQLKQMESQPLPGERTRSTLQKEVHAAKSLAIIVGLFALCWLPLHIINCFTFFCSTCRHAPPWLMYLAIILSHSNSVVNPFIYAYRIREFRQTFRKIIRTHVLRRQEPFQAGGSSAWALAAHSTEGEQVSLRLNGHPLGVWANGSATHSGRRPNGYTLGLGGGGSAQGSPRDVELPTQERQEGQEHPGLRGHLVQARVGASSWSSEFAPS

`C[C@H](Cc1ccccc1)Nc1nc(N)c2ncn([C@@H]3O[C@H](CO)[C@@H](O)[C@H]3O)c2n1` [Compound 1, (R)-2-[(phenylisopropyl)amino]adenosine]: at adenosine A-2 receptors, the Ki was determined as 3.5 nM and the “A-1 Ki/A-2 Ki” value amounted to 2400. Besides, the affinity on Adenosine A-1 receptor corresponds to a Ki of 8.4 µM.
For `C[C@@H](Cc1ccccc1)Nc1nc(N)c2ncn([C@@H]3O[C@H](CO)[C@@H](O)[C@H]3O)c2n1` [Compound 2, (S)-2-[(phenylisopropyl)amino]adenosine], at adenosine A-2 receptors, the inhibition constant Ki was found to be 158 nM and the “A-1 Ki/A-2 Ki” value is listed as 37. For the same molecule, on Adenosine A-1 receptor, the inhibition constant (Ki) came out at 5.8 µM.
As to `CCCn1c(=O)c2[nH]c(-c3ccc(OCC(=O)O)cc3)nc2n(CCC)c1=O` [XCC, carboxylic acid congener of 8-phenyl-1,3-dipropylxanthine], at A-2 receptor, the inhibition constant (Ki) was 34 ± 13 nM.
